# Source: ChEMBL document CHEMBL1201861, “Genomics of Drug Sensitity in Cancer screening data, Wellcome Trust Sanger Institute”
# Tests used:
# Assay in all cases: cells
# Conditions in all cases: Homo sapiens
# SBC-1 = assay type: functional, cell-based;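 also: cell viability assay measuring growth inhibition of the SBC-1 cell line, IC50 being the concentration that halves growth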
# Description: SANGER: Inhibition of human SBC-1 cell growth in a cell viability assay.
# KY821 = assay type: functional, cell-based;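 also: growth inhibition of human KY821 cells, read out by a cell viability assay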
# Description: SANGER: Inhibition of human KY821 cell growth in a cell viability assay.
# TE-10 = assay type: functional, cell-based;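 also: growth inhibition of TE-10 cells, measured by a cell viability assay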
# Description: SANGER: Inhibition of human TE-10 cell growth in a cell viability assay.
# MZ7-mel = assay type: functional, cell-based;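 also: growth inhibition of human MZ7-mel cells, measured by a cell viability assay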
# Description: SANGER: Inhibition of human MZ7-mel cell growth in a cell viability assay.
# ES1 = assay type: functional, cell-based;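 also: growth inhibition of ES1 cells, read out with a cell viability assay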
# Description: SANGER: Inhibition of human ES1 cell growth in a cell viability assay.
# GCIY = assay type: functional, cell-based;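 also: growth inhibition of the human GCIY cell line, read out by a cell viability assay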
# Description: SANGER: Inhibition of human GCIY cell growth in a cell viability assay.
# LB2241-RCC = assay type: functional, cell-based;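 also: cell viability assay measuring how strongly the cultured human renal carcinoma line is prevented from growing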
# Description: SANGER: Inhibition of human LB2241-RCC cell growth in a cell viability assay.
# A101D = assay type: functional, cell-based;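 also: growth inhibition of the cell line, measured with a viability assay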
# Description: SANGER: Inhibition of human A101D cell growth in a cell viability assay.
# Calu-6 = assay type: functional, cell-based;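 also: growth of human Calu-6 cells, read out by a cell viability assay, IC50 marking inhibition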
# Description: SANGER: Inhibition of human Calu-6 cell growth in a cell viability assay.
# NCI-H446 = assay type: functional, cell-based;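 also: growth inhibition of NCI-H446 cells determined by a cell viability assay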
# Description: SANGER: Inhibition of human NCI-H446 cell growth in a cell viability assay.
# BB30-HNC = assay type: functional, cell-based;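 also: growth inhibition of the cultured cell line, read out by a cell viability assay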
# Description: SANGER: Inhibition of human BB30-HNC cell growth in a cell viability assay.
# COLO-800 = assay type: functional, cell-based;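 also: growth inhibition of COLO-800 cells, read out with a cell viability assay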
# Description: SANGER: Inhibition of human COLO-800 cell growth in a cell viability assay.
# SK-MEL-2 = assay type: functional, cell-based;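 also: growth inhibition of human SK-MEL-2 cells measured with a cell viability assay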
# Description: SANGER: Inhibition of human SK-MEL-2 cell growth in a cell viability assay.
# NCI-H1155 = assay type: functional, cell-based;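 also: cell growth inhibition measured by a viability assay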
# Description: SANGER: Inhibition of human NCI-H1155 cell growth in a cell viability assay.
# LS-123 = assay type: functional, cell-based
# Description: SANGER: Inhibition of human LS-123 cell growth in a cell viability assay.
# HuTu80 = assay type: functional, cell-based, HUTU-80;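 also: growth inhibition of HuTu80 human cells, determined with a cell viability readout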
# Description: SANGER: Inhibition of human HUTU-80 cell growth in a cell viability assay.
# COLO-668 = assay type: functional, cell-based
# Description: SANGER: Inhibition of human COLO-668 cell growth in a cell viability assay.
# LB771-HNC = assay type: functional, cell-based;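 also: growth inhibition of LB771-HNC human cells, read out with a cell viability assay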
# Description: SANGER: Inhibition of human LB771-HNC cell growth in a cell viability assay.
# OS-RC-2 = assay type: functional, cell-based;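 also: growth inhibition of human OS-RC-2 cells, measured by a cell viability assay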
# Description: SANGER: Inhibition of human OS-RC-2 cell growth in a cell viability assay.
# A704 = assay type: functional, cell-based;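 also: growth inhibition of human A704 cells, read out with a cell viability assay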
# Description: SANGER: Inhibition of human A704 cell growth in a cell viability assay.
# HT-144 = assay type: functional, cell-based
# Description: SANGER: Inhibition of human HT-144 cell growth in a cell viability assay.
# IST-MEL1 = assay type: functional, cell-based;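 also: growth inhibition of the cell line, read out with a cell viability assay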
# Description: SANGER: Inhibition of human IST-MEL1 cell growth in a cell viability assay.
# RXF 393 = assay type: functional, cell-based;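 also: growth inhibition of human RXF 393 cells, read out with a cell viability assay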
# Description: SANGER: Inhibition of human RXF393 cell growth in a cell viability assay.
# NCI-H69 = assay type: functional, cell-based;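 also: growth inhibition of the cell line, read out with a cell viability assay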
# Description: SANGER: Inhibition of human NCI-H69 cell growth in a cell viability assay.
# NCI-H209 = assay type: functional, cell-based;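 also: growth inhibition of human NCI-H209 cells, measured by a cell viability assay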
# Description: SANGER: Inhibition of human NCI-H209 cell growth in a cell viability assay.
# ES3 = assay type: functional, cell-based;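 also: growth inhibition of ES3 cells, read out with a cell viability assay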
# Description: SANGER: Inhibition of human ES3 cell growth in a cell viability assay.
# JAR = assay type: functional, cell-based;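 also: growth inhibition of human JAR cells determined with a cell viability assay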
# Description: SANGER: Inhibition of human JAR cell growth in a cell viability assay.
# SHP77 = assay type: functional, cell-based, SHP-77;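 also: growth inhibition of human SHP-77 cells measured by a cell viability assay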
# Description: SANGER: Inhibition of human SHP-77 cell growth in a cell viability assay.
# OCI-AML2 = assay type: functional, cell-based;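 also: growth inhibition of OCI-AML2 cells, read out with a cell viability assay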
# Description: SANGER: Inhibition of human OCI-AML2 cell growth in a cell viability assay.
# DMS-114 = assay type: functional, cell-based
# SNU-5 = assay type: functional, cell-based;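 also: cell viability readout used to measure growth inhibition in human NCI-SNU-5 cells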
# Description: SANGER: Inhibition of human NCI-SNU-5 cell growth in a cell viability assay.
# SNU-C2B = assay type: functional, cell-based;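 also: cell viability readout used to measure compound-driven suppression of SNU-C2B cell proliferation, IC50 marking half-maximal growth inhibition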
# Description: SANGER: Inhibition of human SNU-C2B cell growth in a cell viability assay.
# A3-KAW = assay type: functional, cell-based;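 also: growth inhibition of human A3-KAW cells, read out with a cell viability assay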
# Description: SANGER: Inhibition of human A3-KAW cell growth in a cell viability assay.
# GOTO = assay type: functional, cell-based;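 also: growth inhibition of GOTO cells, read out by a cell viability assay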
# Description: SANGER: Inhibition of human GOTO cell growth in a cell viability assay.
# IA-LM = assay type: functional, cell-based;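 also: cell viability assay measuring growth inhibition of human IA-LM cells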
# Description: SANGER: Inhibition of human IA-LM cell growth in a cell viability assay.
# SW872 = assay type: functional, cell-based;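 also: growth inhibition of SW872 cells, read out by a viability assay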
# Description: SANGER: Inhibition of human SW872 cell growth in a cell viability assay.
# SJSA-1 = assay type: functional, cell-based;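 also: growth inhibition of human SJSA-1 cells, read out through a cell viability measurement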
# Description: SANGER: Inhibition of human SJSA-1 cell growth in a cell viability assay.
# P30-OHK = assay type: functional, cell-based;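 also: growth inhibition of the P30-OHK cell line, read out with a cell viability assay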
# Description: SANGER: Inhibition of human P30-OHK cell growth in a cell viability assay.
# BE-13 = assay type: functional, cell-based;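 also: growth inhibition of human BE-13 cells, measured with a cell viability assay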
# Description: SANGER: Inhibition of human BE-13 cell growth in a cell viability assay.
# C8166 = assay type: functional, cell-based;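 also: growth inhibition of human C8166 cells measured by a cell viability assay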
# Description: SANGER: Inhibition of human C8166 cell growth in a cell viability assay.
# KMOE-2 = assay type: functional, cell-based;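 also: growth inhibition of human KMOE-2 cells, read out with a cell viability assay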
# Description: SANGER: Inhibition of human KMOE-2 cell growth in a cell viability assay.
# EW-24 = assay type: functional, cell-based;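 also: human EW-24 cancer cell line, growth inhibition read out via a cell viability assay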
# Description: SANGER: Inhibition of human EW-24 cell growth in a cell viability assay.
# ES8 = assay type: functional, cell-based;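 also: growth inhibition of human ES8 cells, read out with a cell viability assay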
# Description: SANGER: Inhibition of human ES8 cell growth in a cell viability assay.
# HCE-4 = assay type: functional, cell-based;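 also: cell viability assay measuring inhibition of growth in the human HCE-4 cell line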
# Description: SANGER: Inhibition of human HCE-4 cell growth in a cell viability assay.
# A388 = assay type: functional, cell-based;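 also: growth inhibition of human A388 cells, read out with a cell viability assay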
# Description: SANGER: Inhibition of human A388 cell growth in a cell viability assay.
# KGN = assay type: functional, cell-based;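 also: growth inhibition of KGN cells, read out with a cell viability assay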
# Description: SANGER: Inhibition of human KGN cell growth in a cell viability assay.
# ACN = assay type: functional, cell-based;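 also: growth inhibition of the human ACN cell line, read out via cell viability testing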
# Description: SANGER: Inhibition of human ACN cell growth in a cell viability assay.
# EW-3 = assay type: functional, cell-based;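 also: cell viability assay read-out, IC50 reflects inhibition of growth of the EW-3 cells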
# Description: SANGER: Inhibition of human EW-3 cell growth in a cell viability assay.
# EOL1 = assay type: functional, cell-based;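 also: growth inhibition of EoL-1 cells, read out by a cell viability assay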
# Description: SANGER: Inhibition of human EoL-1-cell cell growth in a cell viability assay.
# K5 = assay type: functional, cell-based
# Description: SANGER: Inhibition of human K5 cell growth in a cell viability assay.
# EW-18 = assay type: functional, cell-based;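 also: growth inhibition of EW-18 cells, read out by a cell viability assay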
# Description: SANGER: Inhibition of human EW-18 cell growth in a cell viability assay.
# LNCaP-Clone-FGC = assay type: functional, cell-based
# Description: SANGER: Inhibition of human LNCaP-Clone-FGC cell growth in a cell viability assay.
# COR-L88 = assay type: functional, cell-based;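 also: growth inhibition of COR-L88 cells, read out with a cell viability assay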
# Description: SANGER: Inhibition of human COR-L88 cell growth in a cell viability assay.
# CCRF-CEM = assay type: functional, cell-based
# Description: SANGER: Inhibition of human CCRF-CEM cell growth in a cell viability assay.
# EW-1 = assay type: functional, cell-based
# Description: SANGER: Inhibition of human EW-1 cell growth in a cell viability assay.
# SK-N-FI = assay type: functional, cell-based
# Description: SANGER: Inhibition of human SK-N-FI cell growth in a cell viability assay.
# SK-PN-DW = assay type: functional, cell-based
# Description: SANGER: Inhibition of human SK-PN-DW cell growth in a cell viability assay.
# NB6 = assay type: functional, cell-based
# Description: SANGER: Inhibition of human NB6 cell growth in a cell viability assay.
# QIMR-WIL = assay type: functional, cell-based
# Description: SANGER: Inhibition of human QIMR-WIL cell growth in a cell viability assay.
# LS-513 = assay type: functional, cell-based
# Description: SANGER: Inhibition of human LS-513 cell growth in a cell viability assay.
# LB831-BLC = assay type: functional, cell-based
# Description: SANGER: Inhibition of human LB831-BLC cell growth in a cell viability assay.
# GB-1 = assay type: functional, cell-based
# Description: SANGER: Inhibition of human GB-1 cell growth in a cell viability assay.
# RKO = assay type: functional, cell-based
# Description: SANGER: Inhibition of human RKO cell growth in a cell viability assay.
# IST-SL1 = assay type: functional, cell-based
# Description: SANGER: Inhibition of human IST-SL1 cell growth in a cell viability assay.
# KM12 = assay type: functional, cell-based
# Description: SANGER: Inhibition of human KM12 cell growth in a cell viability assay.
# TE-6 = assay type: functional, cell-based
# Description: SANGER: Inhibition of human TE-6 cell growth in a cell viability assay.
compound,measurement,setting,value
Cc1[nH]c(/C=C2\C(=O)Nc3ccc(S(=O)(=O)Cc4c(Cl)cccc4Cl)cc32)c(C)c1C(=O)N1CCC[C@@H]1CN1CCCC1 [PHA-665752],IC50,SBC-1,> 2 µM
same,IC50,KY821,> 2 µM
same,IC50,TE-10,> 2 µM
same,IC50,MZ7-mel,> 2 µM
same,IC50,ES1,> 2 µM
same,IC50,GCIY,> 2 µM
same,IC50,LB2241-RCC,0.157 µM
same,IC50,A101D,> 2 µM
same,IC50,Calu-6,> 2 µM
same,IC50,NCI-H446,> 2 µM
same,IC50,BB30-HNC,> 2 µM
same,IC50,COLO-800,> 2 µM
same,IC50,SK-MEL-2,> 2 µM
same,IC50,NCI-H1155,> 2 µM
same,IC50,LS-123,> 2 µM
same,IC50,HuTu80,> 2 µM
same,IC50,COLO-668,> 2 µM
same,IC50,LB771-HNC,> 2 µM
same,IC50,OS-RC-2,> 2 µM
same,IC50,A704,> 2 µM
same,IC50,HT-144,> 2 µM
same,IC50,IST-MEL1,> 2 µM
same,IC50,RXF 393,> 2 µM
same,IC50,NCI-H69,> 2 µM
same,IC50,NCI-H209,> 2 µM
same,IC50,ES3,> 2 µM
same,IC50,JAR,> 2 µM
same,IC50,SHP77,> 2 µM
same,IC50,OCI-AML2,> 2 µM
same,IC50,DMS-114,> 2 µM
same,IC50,SNU-5,0.124 µM
same,IC50,SNU-C2B,> 2 µM
same,IC50,A3-KAW,> 2 µM
same,IC50,GOTO,> 2 µM
same,IC50,IA-LM,> 2 µM
same,IC50,SW872,> 2 µM
same,IC50,SJSA-1,> 2 µM
same,IC50,P30-OHK,> 2 µM
same,IC50,BE-13,> 2 µM
same,IC50,C8166,> 2 µM
same,IC50,KMOE-2,> 2 µM
same,IC50,EW-24,> 2 µM
same,IC50,ES8,> 2 µM
same,IC50,HCE-4,> 2 µM
same,IC50,A388,> 2 µM
same,IC50,KGN,> 2 µM
same,IC50,ACN,> 2 µM
same,IC50,EW-3,> 2 µM
same,IC50,EOL1,> 2 µM
same,IC50,K5,> 2 µM
same,IC50,EW-18,> 2 µM
same,IC50,LNCaP-Clone-FGC,> 2 µM
same,IC50,COR-L88,> 2 µM
same,IC50,CCRF-CEM,> 2 µM
same,IC50,EW-1,> 2 µM
same,IC50,SK-N-FI,> 2 µM
same,IC50,SK-PN-DW,> 2 µM
same,IC50,NB6,> 2 µM
same,IC50,QIMR-WIL,> 2 µM
same,IC50,LS-513,> 2 µM
same,IC50,LB831-BLC,> 2 µM
same,IC50,GB-1,> 2 µM
same,IC50,RKO,> 2 µM
same,IC50,IST-SL1,> 2 µM
same,IC50,KM12,> 2 µM
same,IC50,TE-6,> 2 µM
CC(C)=CC[C@@H](O)C1=CC(=O)c2c(O)ccc(O)c2C1=O [SHIKONIN],IC50,SBC-1,12.1 µM
same,IC50,KY821,0.747 µM
same,IC50,TE-10,0.986 µM
same,IC50,MZ7-mel,0.114 µM
same,IC50,ES1,0.503 µM
same,IC50,GCIY,0.036 µM
same,IC50,LB2241-RCC,1.29 µM
same,IC50,A101D,< 0.0625 µM
same,IC50,Calu-6,15.7 µM
same,IC50,NCI-H446,> 16 µM
same,IC50,BB30-HNC,0.243 µM
same,IC50,COLO-800,> 16 µM
same,IC50,SK-MEL-2,6.33 µM
same,IC50,NCI-H1155,> 16 µM
same,IC50,LS-123,0.538 µM
same,IC50,HuTu80,0.37 µM
same,IC50,COLO-668,6.2 µM
same,IC50,LB771-HNC,> 16 µM
same,IC50,OS-RC-2,0.314 µM
same,IC50,A704,2.7 µM
same,IC50,HT-144,0.561 µM
same,IC50,IST-MEL1,15 µM
same,IC50,RXF 393,0.749 µM
same,IC50,NCI-H69,6.71 µM
same,IC50,NCI-H209,12.3 µM
same,IC50,ES3,0.656 µM
same,IC50,JAR,3.26 µM
same,IC50,SHP77,0.446 µM
same,IC50,OCI-AML2,0.298 µM
same,IC50,DMS-114,> 16 µM
same,IC50,SNU-5,9.54 µM
same,IC50,SNU-C2B,> 16 µM
same,IC50,A3-KAW,2.14 µM
same,IC50,GOTO,4.59 µM
same,IC50,IA-LM,2.08 µM
same,IC50,SW872,0.367 µM
same,IC50,SJSA-1,5.53 µM
same,IC50,P30-OHK,0.22 µM
same,IC50,BE-13,1.2 µM
same,IC50,C8166,0.408 µM
same,IC50,KMOE-2,1.24 µM
same,IC50,EW-24,14.6 µM
same,IC50,ES8,0.778 µM
same,IC50,HCE-4,0.389 µM
same,IC50,A388,0.867 µM
same,IC50,KGN,1.31 µM
same,IC50,ACN,0.917 µM
same,IC50,EW-3,0.722 µM
same,IC50,EOL1,0.509 µM
same,IC50,K5,0.734 µM
same,IC50,EW-18,0.529 µM
same,IC50,LNCaP-Clone-FGC,> 16 µM
same,IC50,COR-L88,> 16 µM
same,IC50,CCRF-CEM,0.567 µM
same,IC50,EW-1,0.844 µM
same,IC50,SK-N-FI,7.69 µM
same,IC50,SK-PN-DW,0.0365 µM
same,IC50,NB6,0.454 µM
same,IC50,QIMR-WIL,0.182 µM
same,IC50,LS-513,1.48 µM
same,IC50,LB831-BLC,1.92 µM
same,IC50,GB-1,1.33 µM
same,IC50,RKO,0.27 µM
same,IC50,IST-SL1,> 16 µM
same,IC50,KM12,0.74 µM
same,IC50,TE-6,2.97 µM
